Where two headings read alike, the source gives them in different places.
Experiments:
[1] = system: thrombin; conditions: cited from earlier work
[2] = molecular target: T1, trypsin (Bos taurus, UniProt P00760); experiment: In vitro enzyme assay for specificity: trypsin; format: biochemical, bovine; conditions: 0.5 nM enzyme, 30 minute incubation, read-out: IC50 for inhibition of trypsin
T1 construct: bovine pancreatic trypsin; purchased Worthington Biochemical Corp. TRL3; host or cells: bovine pancreas
T1 sequence (P00760 24-246): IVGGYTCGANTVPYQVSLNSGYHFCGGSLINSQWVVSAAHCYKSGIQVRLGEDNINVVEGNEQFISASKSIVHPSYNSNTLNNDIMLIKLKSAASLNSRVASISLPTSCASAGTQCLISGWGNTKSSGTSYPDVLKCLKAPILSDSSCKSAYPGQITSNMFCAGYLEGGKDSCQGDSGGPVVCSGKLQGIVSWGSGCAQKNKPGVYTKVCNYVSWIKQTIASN
Description: Trypsin catalytic activity was determined using the chromogenic substrate, S-2222 (benzoyl-L-isoleucine-L-glutamic acid-[gamma-methyl ester]-L-arginine-p-nitroanilide), which was obtained from Kabi Diagnostica. […] Purified (3×-crystallized; TRL3) bovine pancreatic trypsin was obtained from Worthington Biochemical Corp. The enzyme was reconstituted in deionized water and diluted into HBSA prior to assay in which the final concentration was 0.5 nM.

[3] = system: thrombotic occlusion of the rat carotid artery; experiment: Rat model of FeCl3-induced platelet-dependent arterial thrombosis; format: in vivo; conditions: iv, 1 h, read-out: ED50, dose that prevents complete thrombotic occlusion in 50% of animals tested
[4] = system: trypsin, plasmin and kallikrein; conditions: literature; cited from earlier work
[5] = literature; cited from earlier work
[6] = literature; cited from earlier work; remark: listed apart in the source
[7] = molecular target: alpha-thrombin (Homo sapiens, UniProt P00734); experiment: In vitro enzyme assay for specificity: thrombin; format: biochemical; conditions: first of the two values in the cell (two isomeric pair), or the only value; 0.25 nM enzyme, 30 minute incubation; read-out: IC50 for inhibition of alpha-thrombin amidolytic activity
Description: The buffer used for all assays was HBSA (10 mM HEPES, pH 7.5, 150 mM sodium chloride, 0.1% bovine serum albumin). […] Following a 30 minute incubation at ambient temperature, 50 microliters of the substrate at the concentrations specified below, was added to the wells yielding a final total volume of 200 microliters.
Thrombin catalytic activity was determined using the chromogenic substrate Pefachrome t-PA (CH3 SO2 -D-hexahydrotyrosine-glycyl-L-arginine-p-nitroanilide, obtained from Pentapharm Ltd.).

[8] = system: thrombosis; conditions: literature; cited from earlier work
[9] = system: atherosclerotic rabbit femoral artery; conditions: following mechanical damage; literature; cited from earlier work
[10] = first of the two values in the cell (two isomeric pair), or the only value

Compound: N=C(N)NCCC[C@H](NC(=O)[C@@H]1CCCN1C(=O)[C@H](N)Cc1ccccc1)C(=O)CCl [P-PACK, D-phenylalanyl-prolyl-arginine-chloromethyl ketone]
- inhibition of thrombin (in words) [1]: inhibit thrombin by directly binding to the active site

Compound: CCCC(CCC)C(=O)N[C@@H](CC(=O)OC)C(=O)N1CCC[C@H]1C(=O)N[C@H](C=O)CC1CCCN(C(=N)N)C1 (single isomer, unassigned) [Isomer 11B, alpha-N-(propylpentanoyl)-aspartyl(beta-methyl ester)-prolyl-3-[3-piperidyl-(N-guanidino)]-L-alaninal]
- IC50 [2, 10]: 67 nM
- IC50 ([2]; second of the two values in the cell (two isomeric pair)): 113 nM
- ED50 [3]: 5 mg/kg

Compound: N=C(N)c1ccc(CC(=O)C(=O)O)cc1 [APPA, 4-amidinophenylpyruvic acid]
- selectivity (in words) [4]: non-selective, inhibiting trypsin, plasmin and kallikrein
- toxicity (in words) [5]: low toxicity
- pharmacokinetics (in words) [6]: favourable pharmacokinetics

Compound: CS(=O)(=O)O.CS(=O)(=O)O.N=C(N)Nc1ccc(C(=O)Oc2ccc3cc(C(=N)N)ccc3c2)cc1 [FUT 175, 6-amidino-2-naphthyl-4-guanidinobenzoate dimethanesulfonate]
- selectivity (in words) [4]: non-selective

Compound: CCCC(CCC)C(=O)N[C@@H](Cc1nnn[nH]1)C(=O)N1CCC[C@H]1C(=O)N[C@H](C=O)CC1CCCN(C(=N)N)C1 (single isomer, unassigned) [Isomer 19B]
- IC50 [2, 10]: 150 nM
- IC50 [7]: 3.11 nM

Compound: CCCC(CCC)C(=O)N[C@@H](CC(=O)OC)C(=O)N1CCC[C@H]1C(=O)N[C@@H](C=O)CC1CCCN(C(=N)N)C1 (single isomer, unassigned) [Isomer 11B(D)]
- IC50 [2, 10]: 2590 nM

Compound: N=C(N)NCCC[C@@H](C=O)NC(=O)[C@@H]1CCCN1C(=O)[C@H](N)Cc1ccccc1 [D-Phe-Pro-Arg-a1, D-phenylalanyl-prolyl-argininal]
- inhibition of thrombin (in words) [1]: inhibit thrombin by directly binding to the active site

Compound: CC(=O)N[C@H](Cc1ccccc1)C(=O)N1CCC[C@H]1C(=O)N[C@@H](CCCNC(=N)N)B(O)O [Ac-(D-Phe)-Pro-boroArg, acetyl-D-phenylalanyl-prolyl-boroarginine]
- inhibition of thrombin (in words) ([1]; literature): inhibit thrombin by directly binding to the active site

Compound: Hirudin
- inhibition of thrombin (in words) ([1]; literature): one of the most potent inhibitors of thrombin known
- antithrombotic effect (in words) [8]: potent antithrombotic agent in vivo
- smooth muscle proliferation and restenosis (in words) [9]: effectively inhibit smooth muscle proliferation and the associated restenosis

Compound: CC1CNc2c(cccc2S(=O)(=O)N[C@@H](CCCNC(=N)N)C(=O)N2CC[C@@H](C)C[C@@H]2C(=O)O)C1 (stereo partly drawn) [Argatroban, 2R,4R-4-methyl-1-[N-2-(3-methyl-1,2,3,4-tetrahydro-8-quinolinesulfonyl)-L-argininal]-2-piperdinecarboxylic acid]
- inhibition of thrombin (in words) [1]: bind directly to the active site of thrombin
- antithrombotic effect (in words) [8]: potent antithrombotic agent in several experimental models of acute arterial thrombosis

Source: patent publication US5883107A, “Arginine mimic derivatives as enzyme inhibitors” (Corvas International, Inc., priority 1995, dated 1999)
